These results are taken from paper PMC4854315, “Discovery of a novel allosteric inhibitor-binding site in ERK5: comparison with the canonical kinase hinge ATP-binding site” (Acta Crystallographica. Section D, Structural Biology, 2016).

Test in all cases: Z'-LYTE kinase panel
Common to all, as to format: biochemical

Assay [1] addresses T1, CSNK1G1 (CK1 gamma 1) (Homo sapiens, UniProt Q9HCP0).
T1 construct: purchased ThermoFisher (SelectScreen, Z'-LYTE)
An outline of the steps: (§1)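 Z′-LYTE, standard conditions; 10 µM test compound; values = % inhibition; broad panel of 225 kinases.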

The target of assay [2] is T2, DYRK4 (Homo sapiens, UniProt Q9NR20).
T2 construct: purchased ThermoFisher (SelectScreen, Z'-LYTE)
T2 sequence (Q9NR20 1-520): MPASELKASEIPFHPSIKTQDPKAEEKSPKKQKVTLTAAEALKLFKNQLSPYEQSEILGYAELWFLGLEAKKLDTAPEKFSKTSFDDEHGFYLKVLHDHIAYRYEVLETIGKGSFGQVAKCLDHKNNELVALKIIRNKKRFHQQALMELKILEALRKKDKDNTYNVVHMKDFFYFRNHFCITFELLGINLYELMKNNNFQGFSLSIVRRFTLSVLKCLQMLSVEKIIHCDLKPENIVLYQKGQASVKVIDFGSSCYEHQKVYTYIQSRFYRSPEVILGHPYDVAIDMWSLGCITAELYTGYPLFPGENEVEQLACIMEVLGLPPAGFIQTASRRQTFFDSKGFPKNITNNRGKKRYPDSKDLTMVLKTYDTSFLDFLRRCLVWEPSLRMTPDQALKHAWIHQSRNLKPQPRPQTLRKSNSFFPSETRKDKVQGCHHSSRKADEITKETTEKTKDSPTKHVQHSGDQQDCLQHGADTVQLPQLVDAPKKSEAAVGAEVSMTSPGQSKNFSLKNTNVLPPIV
In short, it runs like this: as §1

Assay [3] concerns the target T3, EPHA4 (Homo sapiens, UniProt P54764).
T3 construct: purchased ThermoFisher (SelectScreen, Z'-LYTE)
An outline of the steps: as §1

Assay [4] has as its target T4, FRAP1 (mTOR) (Homo sapiens, UniProt P42345).
T4 construct: purchased ThermoFisher (SelectScreen, Z'-LYTE)
In short, it runs like this:
as §1

For assay [5], the target named is T5, ERBB2 (HER2) (Homo sapiens, UniProt P04626).
T5 construct: purchased ThermoFisher (SelectScreen, Z'-LYTE)
In short, it runs like this:
as §1

Assay [6] deals with T6, MINK1 (Homo sapiens, UniProt Q8N4C8).
T6 construct: purchased ThermoFisher (SelectScreen, Z'-LYTE)
T6 sequence (Q8N4C8 whole entry): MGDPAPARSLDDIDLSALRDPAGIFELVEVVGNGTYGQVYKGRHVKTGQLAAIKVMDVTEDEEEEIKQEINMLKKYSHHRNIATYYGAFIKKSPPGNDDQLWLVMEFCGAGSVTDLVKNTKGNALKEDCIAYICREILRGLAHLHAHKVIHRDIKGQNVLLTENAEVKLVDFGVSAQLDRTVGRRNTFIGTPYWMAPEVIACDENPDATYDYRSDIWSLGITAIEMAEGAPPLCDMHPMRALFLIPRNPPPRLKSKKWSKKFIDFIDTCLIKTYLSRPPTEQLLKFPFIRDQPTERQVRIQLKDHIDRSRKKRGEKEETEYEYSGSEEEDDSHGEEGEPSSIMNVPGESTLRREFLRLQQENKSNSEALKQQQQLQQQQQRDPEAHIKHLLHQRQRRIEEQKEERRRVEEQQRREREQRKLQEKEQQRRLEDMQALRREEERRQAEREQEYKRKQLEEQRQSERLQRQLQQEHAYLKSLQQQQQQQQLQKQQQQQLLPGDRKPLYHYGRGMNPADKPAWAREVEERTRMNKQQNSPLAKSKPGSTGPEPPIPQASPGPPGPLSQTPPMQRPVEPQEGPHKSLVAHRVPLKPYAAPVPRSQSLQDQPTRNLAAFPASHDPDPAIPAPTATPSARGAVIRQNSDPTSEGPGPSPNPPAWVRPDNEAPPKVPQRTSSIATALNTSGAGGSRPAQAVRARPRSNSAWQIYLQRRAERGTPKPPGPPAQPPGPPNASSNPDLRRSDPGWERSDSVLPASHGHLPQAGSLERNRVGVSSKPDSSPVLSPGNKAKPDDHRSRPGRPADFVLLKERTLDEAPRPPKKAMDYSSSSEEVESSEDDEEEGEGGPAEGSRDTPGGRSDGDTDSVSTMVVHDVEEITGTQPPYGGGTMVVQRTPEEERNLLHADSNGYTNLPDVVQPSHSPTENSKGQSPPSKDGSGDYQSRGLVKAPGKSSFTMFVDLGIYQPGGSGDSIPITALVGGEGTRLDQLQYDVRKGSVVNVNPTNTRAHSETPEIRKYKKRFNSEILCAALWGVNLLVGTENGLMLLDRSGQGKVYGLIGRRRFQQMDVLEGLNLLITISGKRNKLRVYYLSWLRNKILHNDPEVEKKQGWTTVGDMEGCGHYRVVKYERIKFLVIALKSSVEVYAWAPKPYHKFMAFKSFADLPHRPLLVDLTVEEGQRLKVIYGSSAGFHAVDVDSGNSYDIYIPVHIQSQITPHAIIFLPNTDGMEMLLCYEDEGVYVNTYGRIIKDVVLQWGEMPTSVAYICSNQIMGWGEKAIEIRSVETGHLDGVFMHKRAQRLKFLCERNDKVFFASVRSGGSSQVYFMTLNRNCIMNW
An outline of the steps: as §1

Assay [7] has as its target T7, KDR (VEGFR2) (Homo sapiens, UniProt P35968).
T7 construct: purchased ThermoFisher (SelectScreen, Z'-LYTE)
In short, it runs like this: as §1

For assay [8], the target named is T8, JAK3 (Homo sapiens, UniProt P52333).
T8 construct: purchased ThermoFisher (SelectScreen, Z'-LYTE)
T8 sequence (P52333 1-1124): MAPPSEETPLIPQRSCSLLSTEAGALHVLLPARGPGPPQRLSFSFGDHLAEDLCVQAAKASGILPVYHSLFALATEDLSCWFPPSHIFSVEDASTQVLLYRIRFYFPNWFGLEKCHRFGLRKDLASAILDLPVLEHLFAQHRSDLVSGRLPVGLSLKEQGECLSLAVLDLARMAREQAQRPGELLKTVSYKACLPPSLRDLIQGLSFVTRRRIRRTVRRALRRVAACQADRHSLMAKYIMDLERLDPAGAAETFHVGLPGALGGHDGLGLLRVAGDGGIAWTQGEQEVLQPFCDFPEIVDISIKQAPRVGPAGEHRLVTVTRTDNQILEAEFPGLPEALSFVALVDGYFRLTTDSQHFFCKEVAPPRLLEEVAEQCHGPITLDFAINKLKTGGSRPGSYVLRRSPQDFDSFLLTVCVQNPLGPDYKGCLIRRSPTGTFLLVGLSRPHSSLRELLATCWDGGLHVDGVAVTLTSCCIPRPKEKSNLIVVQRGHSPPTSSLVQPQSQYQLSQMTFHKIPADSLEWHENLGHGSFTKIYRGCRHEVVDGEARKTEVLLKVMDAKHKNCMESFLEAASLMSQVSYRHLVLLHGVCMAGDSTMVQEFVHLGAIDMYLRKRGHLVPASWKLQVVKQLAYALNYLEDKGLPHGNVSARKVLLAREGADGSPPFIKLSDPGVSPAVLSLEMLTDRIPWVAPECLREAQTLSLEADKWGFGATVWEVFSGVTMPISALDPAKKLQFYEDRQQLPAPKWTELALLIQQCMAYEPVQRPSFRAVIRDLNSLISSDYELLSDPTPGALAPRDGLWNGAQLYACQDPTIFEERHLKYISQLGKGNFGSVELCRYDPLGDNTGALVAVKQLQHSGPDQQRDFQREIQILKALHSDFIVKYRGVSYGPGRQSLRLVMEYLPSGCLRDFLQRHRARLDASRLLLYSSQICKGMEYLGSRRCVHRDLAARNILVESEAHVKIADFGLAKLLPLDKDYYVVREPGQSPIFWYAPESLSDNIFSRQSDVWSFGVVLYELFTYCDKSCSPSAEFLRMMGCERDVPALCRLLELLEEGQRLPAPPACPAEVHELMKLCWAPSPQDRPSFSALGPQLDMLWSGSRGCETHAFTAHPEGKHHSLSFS
In short, it runs like this: as §1

The target in assay [9] is T9, TYRO3 (RSE) (Homo sapiens, UniProt Q06418).
T9 construct: purchased ThermoFisher (SelectScreen, Z'-LYTE)
T9 sequence (Q06418 41-890): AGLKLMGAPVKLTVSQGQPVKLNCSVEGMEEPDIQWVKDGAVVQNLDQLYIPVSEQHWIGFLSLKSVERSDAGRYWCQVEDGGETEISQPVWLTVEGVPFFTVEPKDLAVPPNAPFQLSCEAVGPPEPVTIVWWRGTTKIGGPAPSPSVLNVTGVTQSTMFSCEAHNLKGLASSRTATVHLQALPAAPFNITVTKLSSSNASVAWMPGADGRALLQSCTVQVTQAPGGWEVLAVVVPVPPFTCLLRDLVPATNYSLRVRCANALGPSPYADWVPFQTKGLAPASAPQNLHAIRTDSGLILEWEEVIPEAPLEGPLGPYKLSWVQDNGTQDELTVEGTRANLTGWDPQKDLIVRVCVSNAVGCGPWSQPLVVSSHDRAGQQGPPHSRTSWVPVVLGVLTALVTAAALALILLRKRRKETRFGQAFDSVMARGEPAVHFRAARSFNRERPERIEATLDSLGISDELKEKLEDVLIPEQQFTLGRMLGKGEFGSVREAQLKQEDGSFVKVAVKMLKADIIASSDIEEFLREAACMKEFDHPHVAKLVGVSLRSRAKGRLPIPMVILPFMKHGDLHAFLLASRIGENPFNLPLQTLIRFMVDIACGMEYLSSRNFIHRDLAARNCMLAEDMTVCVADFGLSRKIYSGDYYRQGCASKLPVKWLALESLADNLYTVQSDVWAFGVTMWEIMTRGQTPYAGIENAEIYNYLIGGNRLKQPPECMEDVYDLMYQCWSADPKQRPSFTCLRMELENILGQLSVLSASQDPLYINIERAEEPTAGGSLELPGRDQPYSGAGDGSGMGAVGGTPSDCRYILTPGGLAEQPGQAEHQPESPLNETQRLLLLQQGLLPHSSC
An outline of the steps:
as §1

T1 sequence (Q9HCP0 whole entry): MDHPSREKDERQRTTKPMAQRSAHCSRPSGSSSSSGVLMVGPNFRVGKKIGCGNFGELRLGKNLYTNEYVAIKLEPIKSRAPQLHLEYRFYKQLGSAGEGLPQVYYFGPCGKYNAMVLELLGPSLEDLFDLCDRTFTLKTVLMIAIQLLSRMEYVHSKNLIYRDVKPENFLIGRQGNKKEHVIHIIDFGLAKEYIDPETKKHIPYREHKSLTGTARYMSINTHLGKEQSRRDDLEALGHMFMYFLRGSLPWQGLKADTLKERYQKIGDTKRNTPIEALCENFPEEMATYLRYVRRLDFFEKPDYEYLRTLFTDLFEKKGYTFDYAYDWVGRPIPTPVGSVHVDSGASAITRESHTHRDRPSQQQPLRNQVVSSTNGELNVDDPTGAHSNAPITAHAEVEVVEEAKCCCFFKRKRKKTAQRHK
T7 sequence (P35968 20-1356): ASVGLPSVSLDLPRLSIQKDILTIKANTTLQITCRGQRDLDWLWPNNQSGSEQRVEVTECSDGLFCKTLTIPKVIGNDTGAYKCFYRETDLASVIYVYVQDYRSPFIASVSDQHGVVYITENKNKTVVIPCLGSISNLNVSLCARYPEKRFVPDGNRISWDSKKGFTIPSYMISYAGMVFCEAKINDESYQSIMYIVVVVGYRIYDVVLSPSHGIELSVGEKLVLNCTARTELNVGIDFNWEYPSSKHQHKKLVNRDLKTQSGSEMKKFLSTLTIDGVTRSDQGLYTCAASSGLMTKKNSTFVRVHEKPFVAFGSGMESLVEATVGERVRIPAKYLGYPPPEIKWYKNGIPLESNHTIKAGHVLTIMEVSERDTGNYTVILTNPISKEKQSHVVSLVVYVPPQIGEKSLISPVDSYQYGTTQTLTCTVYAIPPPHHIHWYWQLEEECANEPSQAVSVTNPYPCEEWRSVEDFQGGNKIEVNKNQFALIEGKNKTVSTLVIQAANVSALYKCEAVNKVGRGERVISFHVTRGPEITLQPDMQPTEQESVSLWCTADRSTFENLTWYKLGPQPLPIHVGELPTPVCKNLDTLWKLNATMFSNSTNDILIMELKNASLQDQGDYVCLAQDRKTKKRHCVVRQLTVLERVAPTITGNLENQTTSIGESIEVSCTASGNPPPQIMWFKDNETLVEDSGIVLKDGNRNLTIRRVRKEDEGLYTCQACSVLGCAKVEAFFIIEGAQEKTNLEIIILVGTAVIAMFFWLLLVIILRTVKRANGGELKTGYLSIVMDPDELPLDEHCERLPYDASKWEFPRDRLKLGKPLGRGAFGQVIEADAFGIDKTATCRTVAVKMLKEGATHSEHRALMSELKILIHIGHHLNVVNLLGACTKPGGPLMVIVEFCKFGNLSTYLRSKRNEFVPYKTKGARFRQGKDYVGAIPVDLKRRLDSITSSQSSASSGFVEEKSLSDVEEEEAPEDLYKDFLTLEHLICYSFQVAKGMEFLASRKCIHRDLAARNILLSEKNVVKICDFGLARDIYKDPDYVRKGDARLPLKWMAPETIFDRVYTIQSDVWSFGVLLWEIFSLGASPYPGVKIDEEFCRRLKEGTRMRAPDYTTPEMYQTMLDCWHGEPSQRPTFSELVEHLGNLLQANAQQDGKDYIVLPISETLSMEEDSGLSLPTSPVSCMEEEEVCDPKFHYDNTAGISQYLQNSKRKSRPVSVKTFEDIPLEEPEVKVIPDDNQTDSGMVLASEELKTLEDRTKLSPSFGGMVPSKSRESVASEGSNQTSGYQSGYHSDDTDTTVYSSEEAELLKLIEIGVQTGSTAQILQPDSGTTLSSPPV
T3 sequence (P54764 20-986): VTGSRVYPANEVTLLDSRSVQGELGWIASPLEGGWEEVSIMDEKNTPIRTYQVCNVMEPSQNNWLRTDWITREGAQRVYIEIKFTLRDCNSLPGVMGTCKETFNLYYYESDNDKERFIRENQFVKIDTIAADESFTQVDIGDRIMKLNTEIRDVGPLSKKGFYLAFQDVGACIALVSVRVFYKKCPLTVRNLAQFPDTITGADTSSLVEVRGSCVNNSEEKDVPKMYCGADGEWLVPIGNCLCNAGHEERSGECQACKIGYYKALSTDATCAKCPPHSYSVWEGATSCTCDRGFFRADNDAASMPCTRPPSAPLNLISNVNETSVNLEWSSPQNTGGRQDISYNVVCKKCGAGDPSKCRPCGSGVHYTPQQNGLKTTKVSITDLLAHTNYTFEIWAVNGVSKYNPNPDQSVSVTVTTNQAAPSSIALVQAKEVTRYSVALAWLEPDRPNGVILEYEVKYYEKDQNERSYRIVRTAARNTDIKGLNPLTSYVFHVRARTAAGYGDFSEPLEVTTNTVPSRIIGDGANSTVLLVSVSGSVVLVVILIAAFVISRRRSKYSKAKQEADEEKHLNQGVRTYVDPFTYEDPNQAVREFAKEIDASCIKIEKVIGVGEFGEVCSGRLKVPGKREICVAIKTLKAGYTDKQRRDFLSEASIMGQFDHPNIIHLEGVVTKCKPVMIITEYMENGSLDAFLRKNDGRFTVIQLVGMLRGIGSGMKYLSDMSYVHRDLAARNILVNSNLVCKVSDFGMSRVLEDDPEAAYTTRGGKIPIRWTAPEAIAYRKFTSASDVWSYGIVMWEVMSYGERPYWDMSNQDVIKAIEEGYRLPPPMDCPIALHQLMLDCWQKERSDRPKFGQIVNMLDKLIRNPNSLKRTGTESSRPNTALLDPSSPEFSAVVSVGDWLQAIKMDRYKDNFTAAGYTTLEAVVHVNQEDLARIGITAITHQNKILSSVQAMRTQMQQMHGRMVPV

“XMD8-92 [Compound 2, reference compound]”: in assay [1] (10 µM compound, ATP Km app), the “CSNK1G1 (CK1 gamma 1) % Inhibition” value is recorded as 24%. In addition, the “DYRK4 % Inhibition” value in [2] (10 µM compound, ATP Km app) amounted to 1.2%. Besides, in [3] (10 µM compound, ATP Km app), the “EPHA4 % Inhibition” value is listed as 19%. Further, the “FRAP1 (mTOR) % Inhibition” value in assay [4] (10 µM compound, ATP Km app) is on record as -15%. Further, the “ERBB2 (HER2) % Inhibition” value in assay [5] (10 µM compound, ATP Km app) is on record as -17%. Further, in [6] (10 µM compound, ATP Km app), the “MINK1 % Inhibition” value turned out to be 66%. Further, the “KDR (VEGFR2) % Inhibition” value in [7] (10 µM compound, ATP Km app) stood at 81%. Also, the “JAK3 % Inhibition” value in assay [8] (10 µM compound, ATP Km app) amounted to 80%. The “TYRO3 (RSE) % Inhibition” value in assay [9] (10 µM compound, ATP Km app) is reported as 9%.
As a reminder, the inhibition is the change of the read-out against control, counted positive when it falls. For `Cc1cc(Nc2nc(N)nn2C(=O)NC(C)C)ccc1Cl` [Compound 5], the inhibition at 10 µM in assay [1] is 8%; in [2] it was 5%; in [3] it was 10%; in assay [4], -12%; in assay [5] it was -29%; in assay [6], 21%. Moreover, the inhibition at 10 µM in assay [7] was determined as 59%; in assay [8], 45%; in assay [9], 14%.
Regarding `Cc1ncc(-c2nc(Nc3ccc(C(=O)NCCN4CCCCC4)cc3)ncc2F)n1C(C)C` [Compound 3], the inhibition at 10 µM in assay [1] is 70%; in assay [2] it was 23%; in assay [3], 55%; in assay [4], 44%; in [5] it was -1.66%; in assay [6] it was 88%. Moreover, the inhibition at 10 µM in assay [7] was 100%; in assay [8], 88%; in [9], 92%.
